Biological target: Platelet-activating factor receptor (Oryctolagus cuniculus)
Experiment: Inhibition of PAF-induced platelet aggregation in rabbit platelet rich plasma

| SMILES | IC50 [µM] |
| --- | --- |
| CCCCCCCCCCCCCCOc1ccc(C(=O)NCCc2cccc[n+]2C)cc1 [1-Methyl-2-[2-(4-tetradecyloxy-benzoylamino)-ethyl]-pyridinium; iodide] | > 10 |
| CCCCCCCCCCCCCCOc1ccc(C(=O)NCc2cccc[n+]2C)cc1 [1-Methyl-2-[(4-tetradecyloxy-benzoylamino)-methyl]-pyridinium; iodide] | > 10 |
| CCCCCCCCCCCCCCOc1ccc(CC(=O)NCc2cccc[n+]2C)cc1 [1-Methyl-2-{[2-(4-tetradecyloxy-phenyl)-acetylamino]-methyl}-pyridinium; iodide] | > 10 |
| CCCCCCCCCCCCCCOc1ccc(CNC(=O)c2cc[n+](C)cc2)cc1 [1-Methyl-4-(4-tetradecyloxy-benzylcarbamoyl)-pyridinium; iodide] | 60 |
| CCCCCCCCCCCCCCOc1ccccc1CN(Cc1cccc[n+]1C)C(C)=O [2-{[Acetyl-(2-tetradecyloxy-benzyl)-amino]-methyl}-1-methyl-pyridinium; iodide] | 43 |
| CCCCCCCCCCCCCCOc1ccc(C(=O)N(Cc2cccc[n+]2C)C(C)=O)cc1OCCCCCCCCCCCCCC [2-{[Acetyl-(3,4-bis-tetradecyloxy-benzoyl)-amino]-methyl}-1-methyl-pyridinium; iodide] | > 10 |
| CCCCCCCCCCCCCCCCCCNC(=O)Oc1ccc(C(=O)N(Cc2cccc[n+]2C)C(C)=O)cc1C(C)(C)C [2-{[Acetyl-(3-tert-butyl-4-octadecylcarbamoyloxy-benzoyl)-amino]-methyl}-1-methyl-pyridinium; iodide] | > 10 |
| CCCCCCCCCCCCCCOc1cc(C(=O)N(Cc2cccc[n+]2C)C(C)=O)ccc1OC [2-{[Acetyl-(4-methoxy-3-tetradecyloxy-benzoyl)-amino]-methyl}-1-methyl-pyridinium; iodide] | 160 |
| CCCCCCCCCCCCCCOc1ccc(C(=O)N(Cc2cccc[n+]2Cc2ccccc2)C(C)=O)cc1 [2-{[Acetyl-(4-tetradecyloxy-benzoyl)-amino]-methyl}-1-benzyl-pyridinium; bromide] | 330 |
| CCCCCCCCCCCCCCOc1ccc(COC(=O)N(Cc2cccc[n+]2C)C(C)=O)cc1 [2-{[Acetyl-(4-tetradecyloxy-benzyloxycarbonyl)-amino]-methyl}-1-methyl-pyridinium; iodide] | > 10 |
| CCCCCCCCCCCCCCOc1ccc(C(=O)NC(=O)c2ccc[n+](CCC)c2)cc1OC [3-(3-Methoxy-4-tetradecyloxy-benzoylaminocarbonyl)-1-propyl-pyridinium; iodide] | > 10 |
| CCCCCCCCCCCCCCOc1ccc(C(=O)N(Cc2ccc[n+](C)c2)C(C)=O)cc1C(C)(C)C [3-{[Acetyl-(3-tert-butyl-4-tetradecyloxy-benzoyl)-amino]-methyl}-1-methyl-pyridinium; iodide] | 20 |
| CCCCCCCCCCCCCCOc1ccc(CN(Cc2ccc[n+](C)c2)C(C)=O)cc1 [3-{[Acetyl-(4-tetradecyloxy-benzyl)-amino]-methyl}-1-methyl-pyridinium; iodide] | > 10 |
| CCCCCCCCCCCCCCOc1ccc(C(=O)N(Cc2cccc[n+]2[O-])C(C)=O)cc1C(C)(C)C [N-Acetyl-3-tert-butyl-N-(1-oxy-pyridin-2-ylmethyl)-4-tetradecyloxy-benzamide] | > 10 |
| CCCCCCCCCCCCCCOc1ccc(CNC(=O)c2cccc[n+]2CC)cc1 [Trifluoro-methanesulfonate1-ethyl-2-(4-tetradecyloxy-benzylcarbamoyl)-pyridinium;] | > 10 |
| CCCCCCCCCCCCCCOc1ccc(COC(=O)NCc2cccc[n+]2CC)cc1 [Trifluoro-methanesulfonate1-ethyl-2-[(4-tetradecyloxy-benzyloxycarbonylamino)-methyl]-pyridinium;] | > 10 |

The next lines start with the values.

| IC50 [µM] | SMILES |
| --- | --- |
| 15 | CCCCCCCCCCCCCCOc1ccc(CC(=O)NCCc2cccc[n+]2C)cc1 [1-Methyl-2-{2-[2-(4-tetradecyloxy-phenyl)-acetylamino]-ethyl}-pyridinium; iodide] |
| 3.7 | CCCCCCCOc1ccc(C(=O)N(Cc2cccc[n+]2C)C(C)=O)cc1OCCCCCCC [2-{[Acetyl-(3,4-bis-heptyloxy-benzoyl)-amino]-methyl}-1-methyl-pyridinium; iodide] |
| 0.16 | CCCCCCCCCCCCCCOc1ccc(C(=O)N(Cc2cccc[n+]2CC)C(C)=O)cc1OC [2-{[Acetyl-(3-methoxy-4-tetradecyloxy-benzoyl)-amino]-methyl}-1-ethyl-pyridinium; iodide] |
| 0.064 | CCCCCCCCCCCCCCOc1ccc(C(=O)N(Cc2cccc[n+]2C)C(C)=O)cc1OC [2-{[Acetyl-(3-methoxy-4-tetradecyloxy-benzoyl)-amino]-methyl}-1-methyl-pyridinium; iodide] |
| 10 | CCCCCCCCCCOc1ccc(C(=O)N(Cc2cccc[n+]2C)C(C)=O)cc1C(C)(C)C [2-{[Acetyl-(3-tert-butyl-4-decyloxy-benzoyl)-amino]-methyl}-1-methyl-pyridinium; iodide] |
| 0.022 | CCCCCCCCCCCCCCOc1ccc(C(=O)N(Cc2cccc[n+]2C)C(C)=O)cc1C(C)(C)C [2-{[Acetyl-(3-tert-butyl-4-tetradecyloxy-benzoyl)-amino]-methyl}-1-methyl-pyridinium; iodide] |
| 0.95 | CCCCCCCCCCCCCCOc1ccc(C(=O)N(Cc2cccc[n+]2C)C(C)=O)cc1 [2-{[Acetyl-(4-tetradecyloxy-benzoyl)-amino]-methyl}-1-methyl-pyridinium; iodide] |
| 8.3 | CCCCCCCCCCCCCCOc1ccc(CN(Cc2cccc[n+]2CC)C(C)=O)cc1 [2-{[Acetyl-(4-tetradecyloxy-benzyl)-amino]-methyl}-1-ethyl-pyridinium; iodide] |
| 6.8 | CCCCCCCCCCCCCCOc1ccc(C(=O)N(Cc2ccc[n+](C)c2)C(C)=O)cc1 [3-{[Acetyl-(4-tetradecyloxy-benzoyl)-amino]-methyl}-1-methyl-pyridinium; iodide] |
| 1 | CCCCCCCCCCCCCCOc1ccc(CN(Cc2cc[n+](C)cc2)C(C)=O)cc1 [4-{[Acetyl-(4-tetradecyloxy-benzyl)-amino]-methyl}-1-methyl-pyridinium; iodide] |
| 0.1 | CCCCCCCCCCCCCCOc1ccc(C(=O)N(Cc2cccc[n+]2CCC)C(C)=O)cc1OC [Trifluoro-methanesulfonate2-{[acetyl-(3-methoxy-4-tetradecyloxy-benzoyl)-amino]-methyl}-1-propyl-pyridinium;] |
